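48-hour exposure; five concentrations; linearly interpolated endpoints. Here, GI50 denotes the concentration required for 50% inhibition of growth.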 Calls of active or inactive are those of the source. Rule as the data show it: active = GI50 up to about 1.1 µM and inactive = higher.
Columns and labels:
Experiment in all cases: NCI tumour cell line growth inhibition, 48 h
[1] = test system: DU-145
[2] = test system: Hs-578T
[3] = test system: T47D
[4] = test system: MDA-MB-435
[5] = test system: SK-MEL-28
[6] = test system: SNB-19
[7] = test system: CAKI-1
[8] = test system: HOP-62
[9] = test system: ACHN
[10] = test system: HT-29
[11] = test system: A549
[12] = test system: TK-10
[13] = test system: COLO 205
[14] = test system: UO-31
[15] = test system: MDA-N
[16] = test system: HCT-116
[17] = test system: SK-MEL-5
[18] = test system: KM12
[19] = test system: SF-539
[20] = test system: SF-295
[21] = test system: RXF 393
[22] = test system: NCI-H23
[23] = test system: OVCAR-3
[24] = test system: K562
[25] = test system: NCI-H522
[26] = test system: BT-549
[27] = test system: OVCAR-8
[28] = test system: OVCAR-4
[29] = test system: HCT-15
[30] = test system: NCI/ADR-RES
[31] = test system: OVCAR-5
[32] = test system: 786-0
[33] = test system: UACC-62
[34] = test system: RPMI-8226
[35] = test system: MOLT-4
[36] = test system: PC-3
[37] = test system: HCC 2998
[38] = test system: UACC-257
[39] = test system: EKVX
[40] = test system: IGROV-1
[41] = test system: SW-620
[42] = test system: NCI-H460
[43] = test system: CCRF-CEM
[44] = test system: SNB-75
[45] = test system: M14
[46] = test system: SN12C
[47] = test system: HOP-92
[48] = test system: A498
[49] = test system: Malme-3M
[50] = test system: NCI-H226
[51] = test system: SF-268
[52] = test system: HL-60
[53] = test system: LOX IMVI
[54] = test system: MCF7
[55] = test system: U-251
[56] = test system: SK-MEL-2
[57] = test system: SK-OV-3
[58] = test system: MDA-MB-231

COc1ccc(/N=N/C(=O)NC(CC(C)C)C(=O)NC(CC(C)C)C(=O)O)cc1 (stereo not given)
GI50 [1]: 27.7 µM (inactive)
GI50 [2]: > 100 µM (inactive)
GI50 [3]: 26.9 µM (inactive)
GI50 [4]: 34.5 µM (inactive)
GI50 [5]: 17.8 µM (inactive)
GI50 [6]: > 100 µM (inactive)
GI50 [7]: > 100 µM (inactive)
GI50 [8]: > 100 µM (inactive)
GI50 [9]: 12.5 µM (inactive)
GI50 [10]: > 100 µM (inactive)
GI50 [11]: 38.9 µM (inactive)
GI50 [12]: > 100 µM (inactive)
GI50 [13]: 21.5 µM (inactive)
GI50 [14]: 24.8 µM (inactive)
GI50 [15]: 35.3 µM (inactive)
GI50 [16]: 86.5 µM (inactive)
GI50 [17]: 18.1 µM (inactive)
GI50 [18]: 43.8 µM (inactive)
GI50 [19]: 4.81 µM (inactive)
GI50 [20]: 34.8 µM (inactive)
GI50 [21]: > 100 µM (inactive)
GI50 [22]: > 100 µM (inactive)
GI50 [23]: > 100 µM (inactive)
GI50 [24]: 8.45 µM (inactive)
GI50 [25]: 51.9 µM (inactive)
GI50 [26]: > 100 µM (inactive)
GI50 [27]: > 100 µM (inactive)
GI50 [28]: > 100 µM (inactive)
GI50 [29]: 19.5 µM
GI50 [30]: > 100 µM (inactive)
GI50 [31]: 4.02 µM (inactive)
GI50 [32]: > 100 µM (inactive)
GI50 [33]: 16.6 µM (inactive)
GI50 [34]: > 100 µM (inactive)
GI50 [35]: 41.6 µM (inactive)
GI50 [36]: 18.7 µM (inactive)
GI50 [37]: 30.9 µM (inactive)
GI50 [38]: 7.98 µM (inactive)
GI50 [39]: > 100 µM (inactive)
GI50 [40]: > 100 µM (inactive)
GI50 [41]: 67 µM (inactive)
GI50 [42]: 68.9 µM (inactive)
GI50 [43]: 42.6 µM (inactive)
GI50 [44]: > 100 µM (inactive)
GI50 [45]: 29.9 µM (inactive)
GI50 [46]: > 100 µM (inactive)
GI50 [47]: > 100 µM (inactive)
GI50 [48]: > 100 µM (inactive)
GI50 [49]: 23.7 µM (inactive)
GI50 [50]: > 100 µM (inactive)
GI50 [51]: 16.9 µM (inactive)
GI50 [52]: 17.5 µM (inactive)
GI50 [53]: > 100 µM (inactive)
GI50 [54]: > 100 µM (inactive)
GI50 [55]: > 100 µM (inactive)

COc1cc(CNC(=O)[C@H](Cc2ccc(O)cn2)NC(C)=O)cc(OC)c1
GI50 [1]: > 100 µM (inactive)
GI50 [2]: > 100 µM (inactive)
GI50 [3]: 75 µM (inactive)
GI50 [4]: > 100 µM (inactive)
GI50 [5]: > 100 µM (inactive)
GI50 [6]: > 100 µM (inactive)
GI50 [7]: > 100 µM (inactive)
GI50 [8]: > 100 µM (inactive)
GI50 [9]: > 100 µM (inactive)
GI50 [10]: 41 µM (inactive)
GI50 [11]: > 100 µM (inactive)
GI50 [12]: > 100 µM (inactive)
GI50 [13]: > 100 µM (inactive)
GI50 [14]: > 100 µM (inactive)
GI50 [15]: > 100 µM (inactive)
GI50 [16]: 76.2 µM (inactive)
GI50 [17]: 67 µM (inactive)
GI50 [56]: > 100 µM (inactive)
GI50 [18]: > 100 µM (inactive)
GI50 [19]: > 100 µM (inactive)
GI50 [20]: > 100 µM (inactive)
GI50 [21]: > 100 µM (inactive)
GI50 [22]: > 100 µM (inactive)
GI50 [23]: 50.6 µM (inactive)
GI50 [24]: 83 µM (inactive)
GI50 [25]: > 100 µM (inactive)
GI50 [26]: > 100 µM (inactive)
GI50 [28]: > 100 µM (inactive)
GI50 [29]: > 100 µM
GI50 [30]: > 100 µM (inactive)
GI50 [31]: > 100 µM (inactive)
GI50 [32]: > 100 µM (inactive)
GI50 [33]: 80.9 µM (inactive)
GI50 [34]: 29.5 µM (inactive)
GI50 [35]: 57.8 µM (inactive)
GI50 [36]: 99.3 µM (inactive)
GI50 [37]: > 100 µM (inactive)
GI50 [38]: 65.6 µM (inactive)
GI50 [39]: 60 µM (inactive)
GI50 [40]: 36.3 µM (inactive)
GI50 [41]: > 100 µM (inactive)
GI50 [42]: > 100 µM (inactive)
GI50 [43]: > 100 µM (inactive)
GI50 [45]: 92.5 µM (inactive)
GI50 [46]: > 100 µM (inactive)
GI50 [57]: > 100 µM (inactive)
GI50 [47]: 13.2 µM (inactive)
GI50 [48]: > 100 µM (inactive)
GI50 [49]: > 100 µM (inactive)
GI50 [50]: > 100 µM (inactive)
GI50 [51]: > 100 µM (inactive)
GI50 [52]: 19.5 µM (inactive)
GI50 [53]: > 100 µM (inactive)
GI50 [54]: > 100 µM (inactive)
GI50 [55]: > 100 µM (inactive)

CC1(C)[C@H]2CC[C@]1(C)[C@H](OC(=O)NNC(=O)O[C@@H]1C[C@@H]3CC[C@@]1(C)C3(C)C)C2
GI50 [1]: 16.3 µM (inactive)
GI50 [58]: 13 µM (inactive)
GI50 [2]: 14.2 µM (inactive)
GI50 [3]: 7.1 µM (inactive)
GI50 [4]: 21.2 µM (inactive)
GI50 [5]: 24.3 µM (inactive)
GI50 [6]: 19.5 µM (inactive)
GI50 [7]: 15.5 µM (inactive)
GI50 [8]: 14.9 µM (inactive)
GI50 [9]: 18.7 µM (inactive)
GI50 [10]: 5.7 µM (inactive)
GI50 [11]: 10.4 µM (inactive)
GI50 [12]: 20.6 µM (inactive)
GI50 [13]: 12.3 µM (inactive)
GI50 [14]: 15 µM (inactive)
GI50 [15]: 11.6 µM (inactive)
GI50 [16]: 10.9 µM (inactive)
GI50 [17]: 12.6 µM (inactive)
GI50 [56]: 16.8 µM (inactive)
GI50 [18]: 15.7 µM (inactive)
GI50 [19]: 14.4 µM (inactive)
GI50 [20]: 13.8 µM (inactive)
GI50 [21]: 10.6 µM (inactive)
GI50 [22]: 14.9 µM (inactive)
GI50 [23]: 11.9 µM (inactive)
GI50 [24]: 3.35 µM (inactive)
GI50 [25]: 13 µM (inactive)
GI50 [26]: 19.7 µM (inactive)
GI50 [28]: 11.4 µM (inactive)
GI50 [29]: 12.5 µM
GI50 [31]: 17.5 µM (inactive)
GI50 [32]: 17.8 µM (inactive)
GI50 [33]: 17.4 µM (inactive)
GI50 [34]: 10.5 µM (inactive)
GI50 [35]: 7.29 µM (inactive)
GI50 [37]: 14.1 µM (inactive)
GI50 [38]: 16.3 µM (inactive)
GI50 [39]: 12.6 µM (inactive)
GI50 [40]: 15.4 µM (inactive)
GI50 [41]: 19.4 µM (inactive)
GI50 [42]: 13.7 µM (inactive)
GI50 [43]: 20.3 µM (inactive)
GI50 [44]: 13.6 µM (inactive)
GI50 [45]: 15.5 µM (inactive)
GI50 [46]: 12.2 µM (inactive)
GI50 [57]: 14.3 µM (inactive)
GI50 [47]: 15.1 µM (inactive)
GI50 [48]: 16.3 µM (inactive)
GI50 [49]: 16.1 µM (inactive)
GI50 [50]: 16.7 µM (inactive)
GI50 [51]: 15.6 µM (inactive)
GI50 [52]: 7.01 µM (inactive)
GI50 [53]: 26.7 µM (inactive)
GI50 [54]: 10.9 µM (inactive)
GI50 [55]: 16 µM (inactive)

From ChEMBL document CHEMBL1201862, “PubChem BioAssay data set” (2004)
